This note sets out measurements from patent EP1401829B1, “NOVEL HETEROCYCLIC ANTIBACTERIAL COMPOUNDS” (Microbiotix, Inc., priority 2001, dated 2002).

Data set [1] has as its system Staphylococcus aureus (Smith strain). Description: Protection of mice from lethal intraperitoneal infection, compound given intraperitoneally. The data set is classed as in vivo. The conditions noted are these: Swiss Webster mice, groups of five, 15 minutes after infection. As for the experimental part:
• Figures 1A and 1B. Figure 1A is a diagram of the structural formula for Compound 2 (i.e., 3-{4-[1-(1-cyclopropyl-3-carboxy-4-oxo-6-fluoro-7-quinolyl)-4-piperazinyl]butyl}-6-(3-ethyl- 4-methylanilino)uracil). • Figure 1B is a bar graph showing number of survivors in each group of five mice at 24 hours after intraperitoneal infection with 1 x 10^8 colony forming units (CFU) of Staphylococcus aureus (Smith strain) and followed 15 minutes post infection by administration of Compound 2 at a dose of 0 (Vehicle Control), 1, 3, and 10 mg of compound per kg of body weight. Vancomycin at a dose of 10 mg/kg of body weight served as a positive control for antibiotic activity. See text for details. • Figures 2A and 2B. Figure 2A is a diagram of the structural formula for Compound 10 (i.e., 3-{4-[1-(1-cyclopropyl-3-carboxy-4-oxo-6-fluoro-7-quinolyl)-4-piperazinyl]butyl}-6-(3-ethyl-4-methylanilino)uracil methanesulfonate). • Figure 2B is a bar graph showing number of survivors of a group of five mice at 24 hours after intraperitoneal infection with Staphylococcus aureus (Smith strain) as in Figure 1B, except that Compound 10 was administered to each animal at 0, 0.1, 0.3, 1.0, 3.0, and 10 mg/kg body weight at 15 minutes post infection. Controls were the same as in Figure 1B. See text for details. • Figures 3A and 3B. […] Abbreviations: cPr is cyclopropyl; Et is ethyl; dFPh is 2,4-difluorophenyl. • Figure 3B is a bar graph showing number of survivors in each group of five mice at 24 hours after intraperitoneal infection with Staphylococcus aureus (Smith strain) as in Figure 1, except that 15 minutes after infection, the mice in each group received a dose of 0.5 mg/kg of body weight of compound 10, 4, 5, 6, 7, 8, or 12. Controls were the same as in Figure 1. See text for details.
(§1) Swiss Webster mice, ca. 20 g each, were infected with Staphylococcus aureus (Smith strain) by the intraperitoneal route. Test compounds (2, 4, 5, 6, 7, 8, 10, 12) were dissolved in 10% dimethylsulfoxide in peanut oil to a concentration of 2 mg/ml. Vancomycin was used as positive control drug (i.e., protection from lethal infection). Fifteen minutes after infection, test compounds, vancomycin, or vehicle alone were given intraperitoneally to groups of five mice each. Animals were monitored for three days, and the number of mice surviving was tabulated for each treatment.

In another data set the test system is MSSA108. Description: MIC against clinically relevant strains. The data set is classed as cell-based. To be noted: Staphylococcus aureus; methicillin sensitive S. aureus strain. Here is the method: The following methods were used to characterize representative compounds. Minimal Inhibitory Concentration (MIC) determinations. MIC values were determined in 96 well plates, with bacterial growth monitored at OD 600 nm in 200µl following an initial bacterial seeding at approximately 1x10^5 colony forming units (CFU)/ml. Each drug is evaluated at five concentrations, with five data points at each dilution. MIC values (µg/ml) were determined against actively growing cultures in Heart-Brain Infusion (HBI) medium. Cell growth in cultures supplemented with a test compound was calculated as a percent of control at OD 600 nm after 16 to 18 hours at 37°C. This plate format conserves test compound and provides precise, quantitative data with low standard deviation determinations. Polymerase IIIC (Pol IIIC) assay. DNA polymerase activity (or inhibition thereof) was measured in a 96-well plate format. B. subtilis Pol IIIC was isolated as described by Hammond and Brown (Protein Expr. Purif., 3: 65-70 (1992)). Each 25 µl assay contained 30 mM Tris, pH 7.5, 10 mM magnesium acetate, 4 mM dithiothreitol, 20% glycerol, with 25 µM dATP, dCTP, dGTP and 10 µM dTTP (^3H-labelled at 1.44 Ci/mmole) and 0.4 mg/ml activated calf thymus DNA as substrates, as described previously (see Barnes et al, op. cit). Assays were initiated by the addition of 0.025 to 0.06 units of enzyme 1 unit is the amount required to incorporate 250 pmoles of [^3H] dTMP in a standard assay), incubated for 10 minutes at 30°C and terminated by the addition of 200 µl of cold 10% trichloroacetic acid (TCA),10 mM sodium pyrophosphate. Precipitated labeled DNA was collected on glass fiber filter plates, washed, dried, and counted in a liquid scintillation counter. Determination of Ki values. DNA polymerase activity was measured in a 96-well plate format in the absence of dGTP or dATP, depending on the structure of the test compound. Each 25 µl assay contained 30 mM Tris, pH 7.5, 10 mM magnesium acetate, 4 mM dithiothreitol, 20% glycerol, with 25 µM dATP, dCTP, and 10 µM dTTP (^3H-labelled at 1.44 Ci/mmole) and 0.4 mg/ml activated calf thymus DNA as substrates, as described previously. To each well were added 2 µl of compound solution to give final concentrations ranging from 20 - 0.027 µg/ml in the assay. Assays were initiated by the addition of 0.025 to 0.06 units of enzyme (1 unit is the amount required to incorporate 250 pmoles of [^3H] dTMP in a standard assay), incubated for 10 minutes at 30 °C and terminated by the addition of 200 µl of cold 10% trichloroacetic acid, 10 mM sodium pyrophosphate. Precipitated labeled DNA was collected on glass fiber filter plates, washed, dried, and counted in a liquid scintillation counter. Ki is the concentration of test compound that reduces the control polymerase IIIC activity by 50 percent.
Compounds were also tested for antibacterial activity against certain clinically relevant strains, e.g., methicillin sensitive (MSSA) and methicillin resistant (MRSA) strains of Staphylococcus aureus.

The subject of data set [2] is Enterococcus faecalis (ATCC 29212). Description: In vivo efficacy of Compound 70 in mouse models. The conditions noted are these: mice, 3x10^7 CFU/mouse + 5% Mucin. As for the experimental part: as §1
(§2) Using the same basic procedure as described above, the in vivo efficacy of Compound 70 was also evaluated at various doses in mice infected with S. aureaus (Smith), MRSA 1094, Enterococcus faecalis, or vancomycin-resistant Enterococcus faecalis strain VRE 700802. […] Negative controls were mice infected that received no treatment. Mucin was employed as an adjuvant to facilitate bacterial infection in mice, where indicated.

The subject of data set [3] is Staphylococcus aureus (Smith). Description: In vivo efficacy of Compound 70 in mouse models. The conditions noted are these: mice, 10^8 CFU/mouse, regimen 1 (t=0). As for the experimental part:
as §1, §2

Data set [4] in a line: Overt toxicity observed in mouse infection models. It counts as in vivo. To be noted: mice; at therapeutic doses (doses providing survival above no treatment control). As for the experimental part:
as §2

[5] abbreviates: dosage range 1-10 mg/kg body weight intraperitoneally.

≈ marks a conversion by molar mass, not a printed value. Marks after values point to notes of the source that are not given here.

Usually MIC stands for the lowest concentration that inhibits growth of the organism.

On to `CCc1cc(Nc2cc(=O)n(CCCCN3CCN(c4cc5c(cc4F)c(=O)c(C(=O)O)cn5C4CC4)CC3)c(=O)[nH]2)ccc1C` [Compound 2, 3-{4-[1-(1-cyclopropyl-3-carboxy-4-oxo-6-fluoro-7-quinolyl)-4-piperazinyl]butyl}-6-(3-ethyl-4-methylanilino)uracil], for which the “protection of infected mice (number of survivors)” value in data set [1] (setting [5]) is “all five”. In the data set on MSSA108, the MIC came to 0.313 µg/mL (≈ 0.496 µM).

Take `CCc1cc(Nc2cc(=O)n(CCCCN3CCN(c4cc5c(cc4F)c(=O)c(C(=O)O)cn5C4CC4)CC3)c(=O)[nH]2)ccc1C.CS(=O)(=O)O` [Compound 10, 3-{4-[1-(1-cyclopropyl-3-carboxy-4-oxo-6-fluoro-7-quinolyl)-4-piperazinyl]butyl}-6-(3-ethyl-4-methylanilino)uracil methanesulfonate]: the entries for the “protection of infected mice (number of survivors)” value in data set [1] (0.3 mg per kg body weight intraperitoneally), in data set [1] (1 mg/kg or higher intraperitoneally) and in data set [1] (setting [5]) were “one of five”, “complete protection” and “provided protection in the same dosage range as Compound 2”, respectively. This molecule yielded an MIC against MSSA108 of 0.625 µg/mL.

As for `CCc1cc(Nc2cc(=O)n(CCCCN3CCN(c4c(F)cc5c(=O)c(C(=O)O)cn(C6CC6)c5c4F)CC3C)c(=O)[nH]2)ccc1C` (stereo not shown) [Compound 70, 3-{4-[1-(1-cyclopropyl-3-carboxy-4-oxo-6,8-difluoro-7-quinolyl)-3-methyl-4-piperazinyl]butyl}-6-(3-ethyl-4-methylanilino)uracil], the “% Survival at 72 hours” value in data set [2] (dose 25 mg/kg, regimen 1 (t=0)) was 40% (2/5); in data set [2] (dose 25 mg/kg, regimen 2 (t=0,2)), 40% (2/5); in data set [2] (dose 50 mg/kg, regimen 1 (t=0)) it was 60% (3/5); in data set [2] (dose 50 mg/kg, regimen 2 (t=0,2)) it was 80% (8/10)**; in data set [2] (dose 75 mg/kg, regimen 1 (t=0)), 80% (4/5); in data set [3] (dose 3.125 mg/kg), 0% (0/5). The entries for the “% Survival at 72 hours” value in data set [3] (dose 12.5 mg/kg), in data set [3] (dose 25 mg/kg) and in data set [3] (dose 50 mg/kg) were 40% (6/15), 100% (20/20)** and 100% (10/10)**, respectively. The overt toxicity entry in data set [4] was “no overt toxicity”.
